How the values were obtained:
[1] = acute toxicity in mice, i.v.; settings: mouse, in vivo, iv
Protocol: Acute toxicity was determined by using female mice of NMRI-Strain with an age of about 7 months and weighing 30-40 g. The administration of the test compound was i.v.

thrombocytes from a cow = test: antithrombotic activity in vitro: inhibition of ADP- and collagen-induced aggregation of thrombocytes, turbidimetric; assay type: cell-based; settings: cow plasma; for inhibition of ADP-induced aggregation of thrombocytes: ADP added after 10 min incubation; for inhibition of collagen-induced aggregation of thrombocytes: collagen added after 10 min incubation
Protocol: The antithrombotic activity was investigated in vitro. The inhibiting activity of the compounds against ADP- and collagen-induced aggregation of thrombocytes was measured. In the test thrombocytes from a cow were used. To 1.2 ml of plasma containing 250000 thrombocytes/mm^3 were added 50 µl of a solution of the compound to be tested. After 10 min incubation either ADP or collagen was added. The aggregation of the thrombocytes was turbidimetrically determined at X = 605 nm.

Sprague-Dawley rats [2] = test: anti-hypertensive test in urethane-anesthetized rats, blood pressure and pulse frequency recorded after injection; assay type: in vivo
Protocol: The anti-hypertensive properties of the imidazole derivatives of the present invention have been determined according to the following procedure. Sprague-Dawley rats of normal weight were first anesthetized with urethane. After this, the femoral artery was connected by way of a polyethylene tube with a blood pressure transducer. The test substance was then injected into the femoral vein and the blood pressure and the pulse frequency were registered with a recorder.

Sprague-Dawley rats [3] = test: as above; assay type: in vivo; settings: i.c.v. dosage compared with i.v.
[4] = dose of the maximum not stated, within the active dose range

| SMILES | LD50 [1] | inhibition of ADP-induced aggregation of thrombocytes (thrombocytes from a cow) | inhibition of collagen-induced aggregation of thrombocytes (thrombocytes from a cow) | other results |
| --- | --- | --- | --- | --- |
| Cc1cccc(C)c1CCC(O)c1nccn1Cc1ccccc1 (centres unmarked) [1-Benzyl-2-[3-(2,6-dimethylphenyl)-1-hydroxypropyl]-imidazole] | 65 mg/kg | effectively | effectively | – |
| Cc1ccccc1Cc1nc(C)c(C)[nH]1 [2-(2-methylbenzyl)-4,5-dimethyl-imidazole] | 30 mg/kg | effectively | effectively | – |
| Cc1c[nH]c(CCc2cccc(C)c2C)n1 [2-[2-(2,3-dimethylphenyl)-ethyl]-4-methyl-imidazole] | 35 mg/kg | effectively | effectively | maximal decrease of the blood pressure (Sprague-Dawley rats [2]; [4]): 32% |
| Cc1cccc(CCC2=NCCN2)c1C [2-[2-(2,3-dimethylphenyl)-ethyl]-imidazoline] | 30 mg/kg | – | – | maximal decrease of the blood pressure (Sprague-Dawley rats [2]; [4]): 26% |
| Cc1ccc(C)c(CC(O)c2ncc[nH]2)c1 (centres unmarked) [2-[2-(2,5-dimethylphenyl)-1-hydroxyethyl]-imidazole] | 45 mg/kg | effectively | effectively | – |
| Cc1ccc(C)c(CCc2ncc[nH]2)c1 [2-[2-(2,5-dimethylphenyl)-ethyl]-imidazole] | 30 mg/kg | – | – | maximal decrease of the blood pressure (Sprague-Dawley rats [2]; obtained with a dose of 10 mg/kg i.v.): 37% |
| Cc1cccc(C)c1C=Cc1ncc[nH]1 [2-[2-(2,6-dimethylphenyl)-ethenyl]-imidazole] | 40 mg/kg | – | – | lowers the blood pressure by (Sprague-Dawley rats [2]; dose 3 mg/kg i.v. in rats): 17 per cent; pulse frequency (Sprague-Dawley rats [2]; dose not stated): no effect |
| Cc1c[nH]c(CCc2c(C)cccc2C)n1 [2-[2-(2,6-dimethylphenyl)-ethyl]-4-methyl-imidazole] | 25 mg/kg | – | – | lowered the blood pressure by (Sprague-Dawley rats [2]; dosage 300 µg/kg i.v.): 45% |
| Cc1cccc(C)c1CCc1ncc[nH]1 [2-[2-(2,6-dimethylphenyl)-ethyl]-imidazole] | 20 mg/kg | effectively | effectively | blood pressure lowered by i.c.v. dosage with smaller amounts (than i.v.) (Sprague-Dawley rats [3]): 10 x; pulse frequency (Sprague-Dawley rats [2]; at high dosages): slight decrease; effect on blood pressure (Sprague-Dawley rats [2]; dose 300 µg/kg i.v.): lowered blood pressure of long duration; decrease of the blood pressure (Sprague-Dawley rats [2]; dose 3 mg/kg i.v., rats): 30%; effect on blood pressure (Sprague-Dawley rats [2]; dose 30 and 100 µg/kg i.v. in rats): lowered the blood pressure for a shorter time; effect on blood pressure (Sprague-Dawley rats [2]; doses of 30 mg/kg i.v.): did not elevate the blood pressure |
| Cc1cccc(C)c1CCC1=NCCN1 [2-[2-(2,6-dimethylphenyl)-ethyl]-imidazoline] | 25 mg/kg | – | – | lowers the blood pressure by (Sprague-Dawley rats [2]; dose 1-3 mg/kg in rats): 20% |
| Cc1cccc(C)c1CC(O)c1ncc[nH]1 (stereo not drawn) [2-[2-(2,6-dimethylphenyl)-l-hydroxyethyl]-imidazole] | 60 mg/kg | – | – | effect on blood pressure (Sprague-Dawley rats [2]; dose 10 mg/kg): lowers the blood pressure for a longer period; effect on blood pressure (Sprague-Dawley rats [2]; dose 1 and 3 mg/kg i.v.): lowering of the blood pressure of short duration; pulse frequency (Sprague-Dawley rats [2]; dose not stated): very slightly influenced |
| Cc1ccc(CC(O)c2ncc[nH]2)cc1C (centres unmarked) [2-[2-(3,4-dimethylphenyl)-1-hydroxyethyl]-imidazole] | 50 mg/kg | – | – | maximal decrease of the blood pressure (Sprague-Dawley rats [2]; [4]): 17% |
| Cc1ccc(CCc2ncc[nH]2)cc1C [2-[2-(3,4-dimethylphenyl)-ethyl]-imidazole] | 40 mg/kg | – | – | lowered the blood pressure by (Sprague-Dawley rats [2]; dose 10 mg/kg): 20% |
